Source: ChEMBL document CHEMBL1132503, “N'-[2-(2-thiophene)ethyl]-N'-[2-(5-bromopyridyl)] thiourea as a potent inhibitor of NNI-resistant and multidrug-resistant human immunodeficiency virus-1” (Bioorg Med Chem Lett, 1999)

Legend:
[1] = Ability to inhibit the replication of RT-MDR (V106A) strain of HIV-1 p24 antigen production in PBMC; format: functional; conditions: Homo sapiens
[2] = Ability to inhibit the replication of A17 (Y181C) strain of HIV-1 p24 antigen production in PBMC; format: functional; conditions: Homo sapiens
[3] = Cytotoxicity was evaluated using microculture tetrazolium assay (MTA); format: functional; conditions: Homo sapiens
[4] = Ability to inhibit the replication of HTLV IIIb strain of HIV-1 p24 antigen production in PBMC; format: functional; conditions: Homo sapiens
[5] = Ability to inhibit the replication of A17 variant (Y181C,K103N) strain of HIV-1 p24 antigen production in PBMC; format: functional, Homo sapiens
[6] = Cytotoxic concentration was evaluated using microculture tetrazolium assay (MTA); format: functional; conditions: Homo sapiens
[7] = molecular target: Human immunodeficiency virus type 1 reverse transcriptase (Human immunodeficiency virus 1, UniProt Q72547); assay: (§1) Inhibition of recombinant reverse transcriptase (RT) in cell-free Quan-T-RT assay system
[8] = molecular target: Human immunodeficiency virus type 1 reverse transcriptase (Human immunodeficiency virus 1) (UniProt Q72547); assay: as §1

Structure (SMILES) | IC50 [1] [nM] | IC50 [2] [nM] | CC50 [3] [nM] | IC50 [4] [nM] | IC50 [5] [nM] | CC50 [6] [nM] | IC50 [7] [nM] | IC90 [8] [nM]
Fc1ccccc1CC/N=C(\S)Nc1ccc(Br)cn1 | 5 | 200 | > 100000 | < 1 | 41000 | – | – | –
CC(C)Nc1cccnc1N1CCN(C(=O)c2cc3cc(NS(C)(=O)=O)ccc3[nH]2)CC1 [DELAVIRDINE] | 400 | 50000 | – | 9 | > 100000 | 3600 | – | –
Cc1cn([C@H]2C[C@H](N=[N+]=[N-])[C@@H](CO)O2)c(=O)[nH]c1=O [ZIDOVUDINE] | 200 | 6 | – | – | 4 | > 100000 | > 100000 | –
CCOCn1c(Cc2ccccc2)c(C(C)C)c(=O)[nH]c1=O [EMIVIRINE] | 270 | – | – | – | – | > 100000 | – | –
S=C(NCCc1ccco1)Nc1ccc(Br)cn1 | – | – | – | – | – | – | 1200 | > 100000
S=C(NCCN1CCCCC1)Nc1ccc(Br)cn1 | > 100000 | > 100000 | – | 1 | > 100000 | > 100000 | 600 | –
Cc1ccnc2c1NC(=O)c1cccnc1N2C1CC1 [NEVIRAPINE] | 5000 | > 100000 | – | 34 | > 100000 | 10500 | – | –
S=C(NCCc1c[nH]c2ccccc12)Nc1ccc(Br)cn1 | – | – | – | – | – | – | 900 | > 100000
S=C(NCCN1CCOCC1)Nc1ccc(Br)cn1 | – | – | – | – | – | – | > 100000 | > 100000
S=C(NCCc1c[nH]cn1)Nc1ccc(Br)cn1 | – | – | – | – | – | – | – | > 100000
CN1CCCC1CC/N=C(\S)Nc1ccc(Br)cn1 (stereo unspecified) | – | – | – | – | – | – | > 100000 | > 100000
S=C(NCCc1cnc[nH]1)Nc1ccc(Br)cn1 | – | – | – | – | – | – | > 100000 | –
S=C(NCCc1ccccn1)Nc1ccc(Br)cn1 [TROVIRDINE] | 20 | 500 | – | 7 | > 100000 | > 100000 | 600 | 12000
S=C(NCCc1ccc2c(c1)OCO2)Nc1ccc(Br)cn1 | – | – | – | – | – | – | 700 | > 100000
S=C(NCCc1cccs1)Nc1ccc(Br)cn1 | 4 | 48 | – | 30 | 3300 | > 100000 | 800 | 15000
S=C(NCCN1CCCC1)Nc1ccc(Br)cn1 | – | – | – | – | – | – | 4900 | > 100000
